For 14 compounds, TGI and GI50 results are on record in PubChem BioAssay (NCI).

Among the test systems are SK-MEL-2 melanoma; A549 NSCLC; SK-MEL-5 melanoma; SR leukemia; UACC-257 melanoma; CCRF-CEM leukemia; OVCAR-8 ovarian; K-562 leukemia; RPMI-8226 leukemia; DLD-1 colon.
Common to all, as to assay: DTP human tumour cell line panel, 48 h

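1) Cells in 96-well plates. 2) Compound, 48 h, 5 concentrations. 3) Linear interpolation between surrounding doses. 4) Unreached endpoint = highest concentration. GI50 marks 50% less growth. Definition used: TGI = concentration required for complete inhibition of growth.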

As to `O=C(Nc1ccccc1F)c1cc2ccc(O)cc2oc1=Nc1ccccc1F`, the TGI in the test on SK-MEL-2 melanoma turned out to be 4.05 µM; in the test on A549 NSCLC, 5.89 µM; with SK-MEL-5 melanoma, 3.85 µM; in the test on SR leukemia, 5.37 µM; in the test with UACC-257 melanoma, 10.1 µM; with CCRF-CEM leukemia, 3.79 µM. The values for the TGI in the test with OVCAR-8 ovarian, with K-562 leukemia and in the test on RPMI-8226 leukemia were 3.36 µM, 7.64 µM and 7.84 µM, respectively.

Turning to `O=C(O)c1cc(-c2ccc3c(O)c(O)ccc3c2)ccc1O`, the TGI in the test on SK-MEL-2 melanoma was greater than 75 µM; in the test on A549 NSCLC, greater than 75 µM; in the test on SK-MEL-5 melanoma, greater than 75 µM; with SR leukemia it was 42 µM; with UACC-257 melanoma, greater than 75 µM; with CCRF-CEM leukemia, 33.6 µM. The figures for the TGI with OVCAR-8 ovarian, in the test on K-562 leukemia and in the test on RPMI-8226 leukemia were greater than 75 µM, 32.2 µM and 49.1 µM, respectively.

As to `CCN1CCCC(NCc2c3ccccc3c(CNC3CCCN(CC)C3)c3ccccc23)C1` (stereo not drawn), the TGI is 11.7 µM with SK-MEL-2 melanoma; greater than 100 µM in the test with A549 NSCLC; 69.5 µM with DLD-1 colon; 27.4 µM in the test on SK-MEL-5 melanoma; 26.4 µM in the test on UACC-257 melanoma; 41.4 µM with CCRF-CEM leukemia. Besides, the results for the TGI in the test with OVCAR-8 ovarian, in the test on K-562 leukemia and in the test on RPMI-8226 leukemia were greater than 74.4 µM, 42.6 µM and 54.3 µM, respectively.

For `Cc1cn(-c2cc(C(=O)Nc3cccc(-n4ccc5c(NC(=O)c6ccccc6)nccc54)c3)cc(C(F)(F)F)c2)cn1`, the GI50 is 0.342 µM in the test with SK-MEL-2 melanoma; 0.502 µM in the test on A549 NSCLC; 0.195 µM in the test with SK-MEL-5 melanoma; 0.14 µM with SR leukemia; 0.51 µM in the test with UACC-257 melanoma; 0.299 µM in the test on CCRF-CEM leukemia. Further, the GI50 in the test on OVCAR-8 ovarian is 0.419 µM; with K-562 leukemia it was 0.292 µM; in the test with RPMI-8226 leukemia it was 0.426 µM. The TGI is 11.9 µM in the test on SK-MEL-2 melanoma; 5.34 µM in the test with A549 NSCLC; 0.76 µM in the test on SK-MEL-5 melanoma; 19.7 µM with UACC-257 melanoma; 2.09 µM in the test with CCRF-CEM leukemia; 2.99 µM in the test with OVCAR-8 ovarian. Besides, in the test on RPMI-8226 leukemia, the TGI worked out at 4.02 µM.

Turning to `C[C@@H]1S[C@H](c2ccccc2F)N2Cc3ccccc3N=C12`, the TGI in the test with SK-MEL-2 melanoma is 34.7 µM; with A549 NSCLC, greater than 100 µM; in the test on SK-MEL-5 melanoma, 32.5 µM; with SR leukemia, 36.9 µM; in the test with UACC-257 melanoma, 85.7 µM; in the test with CCRF-CEM leukemia, greater than 100 µM. The TGI was greater than 100 µM in the test on OVCAR-8 ovarian, 65.9 µM in the test on K-562 leukemia and 44.4 µM with RPMI-8226 leukemia.

Turning to `C[C@@H](Cl)[C@H]1CCCN(Cc2ccc(Br)cc2)C1`, the TGI in the test with SK-MEL-2 melanoma, in the test on A549 NSCLC, in the test with SK-MEL-5 melanoma, with SR leukemia, in the test with UACC-257 melanoma and in the test on CCRF-CEM leukemia was greater than 12.5 µM in each case. Further, the TGI in the test with OVCAR-8 ovarian, in the test on K-562 leukemia and in the test on RPMI-8226 leukemia was greater than 12.5 µM in each case.

On to `COC(=O)c1c2c(cc3c1CCC3)CCC2`, for which the TGI is 64.3 µM in the test on SK-MEL-2 melanoma; greater than 100 µM in the test on A549 NSCLC; 29.5 µM in the test with SK-MEL-5 melanoma; 44.8 µM with SR leukemia; greater than 100 µM in the test on UACC-257 melanoma; 53.3 µM with CCRF-CEM leukemia. In addition, the TGI with OVCAR-8 ovarian is greater than 100 µM; in the test on K-562 leukemia, greater than 100 µM; with RPMI-8226 leukemia it was 52.4 µM.

Consider `c1ccc2c(c1)c1c(n2CCOCCN2CCOCC2)CCCC1`, for which the TGI in the test with SK-MEL-2 melanoma is 52.4 µM; in the test on A549 NSCLC it was greater than 100 µM; in the test on SK-MEL-5 melanoma, 48.9 µM; in the test with SR leukemia it was greater than 100 µM; in the test on UACC-257 melanoma, 47.8 µM; with CCRF-CEM leukemia, 69.4 µM. Also, the TGI in the test on OVCAR-8 ovarian was greater than 100 µM; in the test with K-562 leukemia, greater than 100 µM; with RPMI-8226 leukemia, 53.9 µM.

As for `CCOC(CNCCC(=O)OC)OCC`, the TGI in the test with SK-MEL-2 melanoma, in the test with A549 NSCLC, in the test on SK-MEL-5 melanoma, with SR leukemia, in the test with UACC-257 melanoma and in the test with CCRF-CEM leukemia was greater than 10 µM in each case. For the same compound, the TGI in the test with OVCAR-8 ovarian, with K-562 leukemia and in the test on RPMI-8226 leukemia was greater than 10 µM throughout.

With `NNC1=N/C(=C\c2ccco2)C(Cl)=N1`, the TGI with SK-MEL-2 melanoma is greater than 100 µM; in the test with A549 NSCLC it was greater than 100 µM; in the test with SK-MEL-5 melanoma it was greater than 100 µM; with SR leukemia, 72.1 µM; in the test on UACC-257 melanoma, greater than 100 µM; in the test on CCRF-CEM leukemia, greater than 100 µM. In addition, the TGI in the test on OVCAR-8 ovarian is greater than 100 µM; with K-562 leukemia, 42 µM; in the test on RPMI-8226 leukemia, 41.8 µM.

Turning to `COc1cc(-c2cc(=O)c3cc4c(=O)cc(-c5cc(OC)c(OC)c(OC)c5)oc4cc3o2)cc(OC)c1OC`, the TGI with SK-MEL-2 melanoma is 41.3 µM; in the test on A549 NSCLC it was greater than 100 µM; in the test with SK-MEL-5 melanoma, greater than 100 µM; with SR leukemia, greater than 100 µM; with UACC-257 melanoma, greater than 100 µM; in the test with CCRF-CEM leukemia it was greater than 100 µM. Also, the concentration for total growth inhibition (TGI) was greater than 100 µM with OVCAR-8 ovarian, greater than 56 µM in the test with K-562 leukemia and greater than 100 µM in the test on RPMI-8226 leukemia.

Consider `CC(=O)c1cccn1/C=C(\OC(=O)OC(C)(C)C)c1ccc[nH]1`, for which the TGI with SK-MEL-2 melanoma, with A549 NSCLC, with SK-MEL-5 melanoma, in the test with SR leukemia, with UACC-257 melanoma and with CCRF-CEM leukemia was greater than 100 µM in each case. For the same compound, the TGI in the test on OVCAR-8 ovarian, in the test on K-562 leukemia and in the test with RPMI-8226 leukemia was greater than 100 µM in each case.

Take `O=C1NCC(NC(=O)C(F)(F)F)c2c(Br)sc(Br)c21` (stereo not drawn): the TGI with SK-MEL-2 melanoma, in the test with A549 NSCLC, in the test with SK-MEL-5 melanoma, in the test on SR leukemia, in the test on UACC-257 melanoma and in the test with CCRF-CEM leukemia was greater than 100 µM in each case. The TGI with OVCAR-8 ovarian, in the test with K-562 leukemia and in the test on RPMI-8226 leukemia was greater than 100 µM each time.

Take `CCOC(=O)C(Cl)(Cl)/S(=N\S(=O)(=O)c1ccccc1)NC(=O)c1ccccc1` (stereo not drawn): the concentration for total growth inhibition (TGI) in the test with SK-MEL-2 melanoma, in the test on A549 NSCLC, with SK-MEL-5 melanoma, in the test on SR leukemia, with UACC-257 melanoma and in the test with CCRF-CEM leukemia was greater than 100 µM throughout. Also, the total growth inhibition concentration (TGI) in the test on OVCAR-8 ovarian, in the test with K-562 leukemia and with RPMI-8226 leukemia was greater than 100 µM in each case.

One may read the TGI as the concentration giving total growth inhibition. One may read the GI50 as the concentration that inhibits growth by half.
